For two compounds, inhibition and IC50 results are on record in ChEMBL document CHEMBL1150765, “Clavatadine A, a natural product with selective recognition and irreversible inhibition of factor XIa” (J Med Chem, 2008).

Test [1] has as its target Coagulation factor IX (Homo sapiens) (UniProt P00740). Briefly: Inhibition of factor 9a at 222 uM.
The next test concerns the target Coagulation factor XI (Homo sapiens, UniProt P03951). Briefly: Inhibition of factor 11a.

Molecules are shown by their SMILES.

Coagulation factor IX (Homo sapiens), sequence (P00740 47-191 limits assumed): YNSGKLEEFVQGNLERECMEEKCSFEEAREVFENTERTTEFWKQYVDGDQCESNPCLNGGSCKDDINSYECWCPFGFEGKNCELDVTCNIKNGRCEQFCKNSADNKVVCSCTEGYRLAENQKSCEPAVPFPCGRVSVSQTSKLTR
Coagulation factor IX (Homo sapiens), sequence (P00740 227-461 limits assumed): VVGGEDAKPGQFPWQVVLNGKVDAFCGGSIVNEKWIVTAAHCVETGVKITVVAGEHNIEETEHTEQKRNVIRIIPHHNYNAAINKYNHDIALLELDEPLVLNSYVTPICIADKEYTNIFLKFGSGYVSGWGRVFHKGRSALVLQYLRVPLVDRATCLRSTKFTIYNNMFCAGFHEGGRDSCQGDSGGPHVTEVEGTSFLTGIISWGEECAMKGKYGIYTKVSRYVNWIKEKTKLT
Coagulation factor XI, sequence (P03951 19-387 limits assumed): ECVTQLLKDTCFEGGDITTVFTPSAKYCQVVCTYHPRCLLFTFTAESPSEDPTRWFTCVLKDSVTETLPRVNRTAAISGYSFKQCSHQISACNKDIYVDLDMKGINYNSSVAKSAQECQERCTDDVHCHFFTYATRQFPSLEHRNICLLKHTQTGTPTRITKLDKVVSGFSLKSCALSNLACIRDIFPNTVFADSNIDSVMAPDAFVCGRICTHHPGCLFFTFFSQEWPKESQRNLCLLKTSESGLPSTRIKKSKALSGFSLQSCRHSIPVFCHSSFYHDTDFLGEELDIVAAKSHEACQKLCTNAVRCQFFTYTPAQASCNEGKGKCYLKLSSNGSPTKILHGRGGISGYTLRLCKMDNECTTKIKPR
Coagulation factor XI, sequence (P03951 388-625 limits assumed): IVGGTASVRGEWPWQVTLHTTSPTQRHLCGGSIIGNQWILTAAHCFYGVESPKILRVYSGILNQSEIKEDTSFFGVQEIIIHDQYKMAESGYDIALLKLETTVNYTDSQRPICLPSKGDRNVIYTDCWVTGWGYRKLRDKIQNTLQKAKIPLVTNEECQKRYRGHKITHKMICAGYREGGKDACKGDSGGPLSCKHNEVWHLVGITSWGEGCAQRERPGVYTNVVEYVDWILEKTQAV

In turn, `N=C(N)NCCCCNC(=O)Oc1c(Br)cc(O)c(CC(=O)O)c1Br` [CLAVATADINE A] had an inhibition in test [1] of less than 5%. The same compound gave a half-inhibitory concentration (IC50) against Coagulation factor XI of 1.3 µM.

`N=C(N)NCCCCNC(=O)Oc1cc(Br)c(O)c(Br)c1CC(N)=O` [CLAVATADINE B] yielded an inhibition in test [1] of less than 5%. The compound also displayed an IC50 against Coagulation factor XI of 27 µM.
